Results on ten compounds are retold here after patent publication EP3572468B1, “CYANINE DYES AND THEIR USAGE FOR IN VIVO STAINING OF MICROORGANISMS” (PHILIPPS-UNIVERSITÄT MARBURG, priority 2018, dated 2019).

A short description of data set [1]: Fluorescence quantum yield, dye alone. Format: physicochemical. The conditions noted are these: reference compounds determined against each other; Atto 655 in PBS pH 7.4, Alexa Fluor 647 in 50 mM potassium phosphate pH 7.2 and 150 mM NaCl. The protocol: Fluorescence intensity values for the quantum yields were determined on an ISS PC1 spectrofluorometer with an ISS 11650 lamp connected to an ISS Simpson model 109 and an ISS 80011 photomulitplier connected to a MGW Lauda K2R D and an Amherst Scientific Corp. 7600F for cooling. A VWR Refrigerated Circ 1160S was connected for the cooling of the cuvette chamber. It was measured in a 1400 µL fluorescence cuvette of HellmaAnalytics (104F-QS) at 25°C using the following settings: increment: 2.0 nm; integration time: 1.0 s; excitation slit width: 0.25 mm; emission slit width: 0.5 mm; excitation wavelength 590 nm. The emission spectra were recorded from 610 to 750 nm. From all spectra the corresponding background signal was substracted. Absorbance values were measured on a Jasco V-650 UV-Vis Spectrophotometer equipped with a Jasco PAC-743 temperature controlled cell holder and a Julabo F250 cooling system. UV-Vis titration measurements were performed in a 1400 µL quarz cuvette with a pathlength of 1 cm at 25°C using the following settings: increment: 1.0 nm; bandwidth: 1.0 nm; scanning speed: 1000 nm/min; scanning mode: continuous. From all values, the corresponding background signal was subtracted. The values for the reference compounds were measured in duplicates, the ones for 6-TramTO-3 with and without dsDNACT in triplicates. The quantum yields of 6-TramTO-3 with (30 eq.) and without dsDNACT were determined in 10 mM Tris pH 7.6 and 50 mM KCI. All measurement were following the procedure of Horiba and using the equation E1: ΦX = ΦST ((GradX)/(GradST)) ((((ηX))^2)/(((ηST))^2)) [formula] where Φ = fluorescence quantum yield, η = refractive index of the used solvent, Grad = gradient from the plot of integrated fluorescence intensity vs. absorbance and the subscripts ST and X denote standard and tested sample. […]
Table 3: Determined slopes and corresponding quantum yields for the two reference compounds Alexa Flour® 647 and Atto 655 and for 6-TramTO-3 with and without dsDNACT.

The conditions of data set [2]: Atto 655 in PBS pH 7.4; Alexa Fluor 647 in 50 mM potassium phosphate pH 7.2 and 150 mM NaCl; cited from earlier work.
Data set [3] has as its system Escherichia coli (E. coli) NEB5α. As to the kind of experiment: Bacteria culture and staining: growth and FACS labeling of E. coli. Format: cell-based. As to conditions: for bacterial growth in presence of dye: 2.5 µM dye in LB medium, OD600 over time, liquid and solid medium; for fluorescent labeling of live bacteria (FACS): 2.5 µM dye in culture medium, FACS at mid-exponential growth phase (OD600 = 2.0). The protocol: (§1) Escherichia coli (E. coli) NEB5α (New England Biolabs) and antibiotic-resistant and -sensitive Klebsiella pneumoniae (K. pneumoniae) were cultured in Luria-Bertani (LB) solid medium (LB-Agar) overnight at 37°C. The source of the K. pneumoniae strands is of no relevance to the invention. The invention may be applied to all types of microorganisms (bacteria, viri, fungi etc.) or other cells, either contained within a sample or isolated from a sample. For staining, growth curve analysis and replating experiments bacteria were suspended in LB liquid medium at an OD600 nm of 1.0 and 800 µL were transferred into a culture tube containing 7.2 mL of LB liquid medium supplemented with DMSO or candidate dyes (2.5 µM) final concentration). Density of bacterial cultures was measured using an Ultrospec 10 Cell Density Meter with 600 nm LED source (Amersham Biosciences). For bacterial re-plating experiments bacteria were sampled at OD600 nm = 2.0 and 5 µL of indicated dilutions in LB-medium were spotted onto LB-agar plates (Fig. 5) or 100 µL were plated onto LB-agar plates followed by incubation at 37°C until colonies became visible.
Bacteria and macrophages were washed with PBS prior to flow cytometry and analysed using a Guava easyCyte flow cytometer (Millipore). FCS3.0 files were analysed using Flowing Software (http://flowingsoftware.btk.fi/). Cells were first gated in the forward- / side-scatter plot to exclude debries, followed by quadrant gating in plots using the fluorescence channels as shown above. For discrimination of live/dead cell discrimination cells in PBS were supplemented with 0.4 µL/mL propidium-iodide (5 mg/ml solution) followed by 5 min incubation on ice. Propidium iodide signal was recorded in the yellow channel.

The subject of data set [4] is bacteria. As to conditions: in vivo labeling of bacteria for macrophage uptake assays; indicative of toxicity; cited from earlier work.
Data set [5] concerns the target dsDNACT. As to conditions: previously obtained results for DNA intercalators with the same DNA (dsDNACT); cited from earlier work.
Data set [6] in a line: Molar extinction coefficient determination. Format: physicochemical. The protocol:
The concentration determination and measurement of full UV-Vis spectra were performed on a Tecan 20M at room temperature. The measurements were performed in a 1400 µL quarz cuvette with a pathlength of 1 cm in a volume of 1 mL.
For the accurate determination of our compounds 6-TramTO-3 the extinction coefficient was calculated. A specific amount (< 2.00 mg) of the compound was weighted on a Mettler Toledo XP6 and dissolved in a known amount of milli-Q water. Increasing amounts of such stock solution were added into a 1 mL cuvette filled with 1 ml of milli-Q water. The corresponding absorbance of each addition was measured on a Tecan Spark 20M at the maximum at 625 nm and without exceeding 10% of the initial volume. In all the cases the absorbance was between 0.1 and 1 AU. to be in concordance with Lambert-Beer law (equation E2). A = ε l c [formula]
In this equation (E2): A = absorbance of the solution; I = length of the cuvette; c = concentration; ε = molar extinction coefficient.
The lineal regression of the obtained absorbance measurements versus the concentrations of 6-TramTO-3 allowed us to obtain the molar extinction coefficient. These measurements were repeated three times independently i.e. from three different stock solutions. The mean extinction coefficient and the standard deviation of 6-TramTO-3 at a wavelength of 625 nm in milli-Q water was 59403 ±646 M^-1cm^-1.
The mean extinction coefficient and the standard deviation of 6-NH2TO-3 and 6-AzTO-3 were determined following the above described procedure. The extinction coefficient of 6-NH2TO-3 was determined in milli-Q water, whereas the extinction coefficient of 6-AzTO-3 was determined in DMSO due to its low aqueous solubility. […] For the spectrum of 6-AzTO-3 1% of DMSO was added for a better solubility. Fig. 20 and Fig. 21 show the linear regressions from the three independent measurements. Table 4 summarized the molar extinction coefficient obtained. Table 4: Determined mean extinction coefficients and standard deviations of 6-AzTO-3 in DMSO and 6-TramTO-3 and 6-NH2TO-3 in milli-Q water.

In data set [7] the test system is antibiotic-sensitive K. pneumoniae. As to the kind of experiment: Resistance to standard antibiotics, bacterial dilutions spotted onto solid medium. It counts as cell-based, Klebsiella pneumoniae. The conditions noted are these: the other (antibiotic-sensitive) K. pneumoniae strain; dilutions spotted onto LB solid medium supplemented with antibiotic, outgrowth 48 h. The protocol:
as §1

Data set [8] deals with multiresistant K. pneumoniae. Described as above. As to conditions: dilutions spotted onto LB solid medium supplemented with antibiotic, outgrowth 48 h. Format: cell-based, Klebsiella pneumoniae. The protocol:
as §1

Data set [9] concerns E. coli. The data set is described as above. It counts as cell-based, Escherichia coli. The conditions noted are these: dilutions spotted onto LB solid medium supplemented with antibiotic, outgrowth 48 h. The protocol:
as §1

A short description of data set [10]: Aqueous solubility (remark). Format: physicochemical. The conditions noted are these: reason why the extinction coefficient was determined in DMSO.

In the case of `CC[N+]1=c2cc3c(cc2CCC1)=Nc1cc2c(cc1O3)N(CCCC(=O)ON1C(=O)CCC1=O)C(C)(C)CC2CS(=O)(=O)[O-]` (centres unmarked) [Atto 655, reference compound], the quantum yield in data set [1] came out at 0.31. Further, in data set [2], the “quantum yield (lit.)” value is 0.30.
On to SyTO-9^™, for which, in data set [3], the “bacterial growth in presence of dye” value is on record as “delayed bacterial growth substantially” and the “fluorescent labeling of live bacteria (FACS)” value is on record as “efficient green-fluorescent labeling”. For the same compound, the “colony formation of the stained bacteria” value in [4] was “reduced colony formation”.
Take `CN(C)c1ccc2nc3ccc(=[N+](C)C)cc-3sc2c1` [methylene blue]: in [5], the Kd (commonly the constant that tells how readily two partners part at equilibrium) was 46 µM.
In [6] (in milli-Q water, absorbance maximum at 625 nm), `CC[n+]1ccc(/C=C/C=C2\Sc3ccccc3N2CCCCCCN)c2ccccc21.O=C([O-])C(F)(F)F` [6-NH2TO-3, mono(4-((1E,3Z)-3-(3-(6-ammoniohexyl)benzo[d]thiazol-2(3H)-ylidene)prop-1-enyl)-1-ethylquinolinium) mono(2,2,2-trifluoroacetate)] showed a mean extinction coefficient of 90043 ± 418 M⁻¹ cm⁻¹.
With `CC1(C)S[C@@H]2[C@H](NC(=O)[C@H](N)c3ccccc3)C(=O)N2[C@H]1C(=O)O` [ampicillin], the sensitivity to antibiotic result in data set [7] is listed as “sensitive”; in data set [8], “insensitive”; in [9] it was “sensitive”.
“carboxyfluorescein succinimidyl ester [CFSE]”: in [3], the “bacterial growth in presence of dye” value is on record as “compatible with bacterial growth” and the “fluorescent labeling of live bacteria (FACS)” value is “hardly labeled bacteria”.
As for `O=C(N[C@H](CO)[C@H](O)c1ccc([N+](=O)[O-])cc1)C(Cl)Cl` [chloramphenicol], the sensitivity to antibiotic result in data set [7] is “sensitive”; in data set [8], “insensitive”; in [9] it was “sensitive”.
Take `CN(C)c1ccc2cc3ccc(N(C)C)cc3nc2c1` [acridine orange]: the Kd in data set [5] was 36 µM.
For `CC[n+]1ccc(/C=C/C=C2\Sc3ccccc3N2CCCCCCN=[N+]=[N-])c2ccccc21.[I-]` [6-AzTO-3, 4-((1E,3Z)-3-(3-(6-azidohexyl)benzo[d]thiazol-2(3H)-ylidene)prop-1-en-1-yl)-1-ethylquinolin-1-ium iodide], in data set [10], the aqueous solubility result is “low”. In data set [6] (in DMSO, absorbance maximum at 639 nm), this compound came in with a mean extinction coefficient of 110203 ± 1577 M⁻¹ cm⁻¹.
With Alexa Fluor^® 647 [reference compound], the quantum yield in [1] worked out at 0.32. Further, in [2], the “quantum yield (lit.)” value is on record as 0.33.
